Experiments:
RCC4 cells = experiment: XTT assay in VHL-deficient RCC4 cells; format: cell-based; conditions: Homo sapiens, 96 h, XTT assay, VHL-deficient RCC4 cells, four days
Description: (§1) Cell Viability and XTT assays. For cell viability, 100,000 cells were plated in a 12-well plate. The following day, 1.25 μM STF-62247 was added in the presence or absence of 1 mM 3-MA for 24 hours at 37° C. Cells were trypsinized and counted by trypan blue exclusion. For XTT assays, 5000 RCC4 with and without VHL cells or 2,500 SN12C with and without VHL shRNA cells were plated in 96-well plates. The following day, vehicle (DMSO), STF-62247 or each of 19 analogs were added to media by serial dilution. Four days later, the media was aspirated and XTT solution containing 0.3 mg/ml of XTT (Sigma Chemical Co) in Phenol Red-free media, 20% FCS and 2.65 mg/ml N-methyl dibenzopyrazine methyl sulfate (PMS) was added to the cells and incubated at 37° C. for 1-2 hours. Metabolism of XTT was quantified by measuring the absorbance at 450 nm on a plate reader.

RCC4/VHL cells = experiment: XTT assay, RCC4/VHL versus RCC4 cells (selectivity ratio); format: cell-based; conditions: selectivity ratio, IC50 in RCC4/VHL cells/IC50 in RCC4 cells
Description: as §1
A. RCC4 and RCC4/VHL were treated with 1.25 μM of each 19 analogs for 20 hours and the presence of vacuoles was examined under light microscopy. B. Western blot for LC3 after treatment with each compound. Tubulin was used as loading control. Ratio is the relative from the IC50 in RCC4/VHL cells/IC50 in RCC4 cells. C. Acidic vesicle organelles (AVO) measured by FACS analysis in cells treated with 1.25 μM of STF-62247 or with compounds 21, 15, 25, 47, and 53 and stained with acridine orange.

melting point [°C] | SMILES | IC50 (RCC4 cells; Table 1) [µM] | Ratio (RCC4/VHL cells; Table 1) | Ratio (RCC4/VHL cells; Table 2) | IC50 (RCC4 cells; Table 2) [µM]
230 to 232 | COc1ccc(Nc2nc(-c3ccncc3)cs2)cc1O [Compound 51, 2-Methoxy-5-{[4-(4-pyridinyl)-1,3-thiazol-2-yl]amino}phenol] | – | – | – | –
244 to 247 | O=[N+]([O-])c1cccc(Nc2nc(-c3ccncc3)cs2)c1 [Compound 129, N-(3-Nitrophenyl)-4-(4-pyridinyl)-1,3-thiazol-2-amine] | > 40 | – | – | –
> 290 | O=[N+]([O-])c1ccc(Nc2nc(-c3ccncc3)cs2)cc1 [Compound 35, N-(4-Nitrophenyl)-4-(4-pyridinyl)-1,3-thiazol-2-amine] | > 40 | – | – | –
141 to 143 | Cc1cccc(Nc2nc(-c3ccnc(N4CCN(C)CC4)c3)cs2)c1 [Compound 198, N-(3-Methylphenyl)-4-[2-(4-methyl-1-piperazinyl)-4-pyridinyl]-1,3-thiazol-2-amine] | – | – | – | –
149 to 151 | Cc1cccc(N(CCO)c2nc(-c3ccncc3)cs2)c1 [Compound 97, 2-{3-Methyl[4-(4-pyridinyl)-1,3-thiazol-2-yl]anilino}ethanol] | > 40 | – | – | –
158 to 160 | Cc1ccccc1Nc1nc(-c2ccncc2)cs1 [Compound 111, N-(2-Methylphenyl)-4-(4-pyridinyl)-1,3-thiazol-2-amine] | > 40 | – | – | –
201 to 204 | Cc1cccc(Nc2nc(-c3ccncc3)co2)c1 [Compound 105, N-(3-Methylphenyl)-4-(4-pyridinyl)-1,3-oxazol-2-amine] | > 40 | – | – | –
201 to 202 | Cc1cccc(C(=O)Nc2nc(-c3ccncc3)cs2)c1 [Compound 100, 3-Methyl-N-[4-(4-pyridinyl)-1,3-thiazol-2-yl]benzamide] | > 40 | – | – | –
201 to 203 | c1cc(-c2csc(Nc3ccc4c(c3)OCO4)n2)ccn1 [Compound 59, N-(1,3-Benzodioxol-5-yl)-4-(4-pyridinyl)-1,3-thiazol-2-amine] | > 40 | – | – | –
190 to 191 | Cc1cccc(Nc2nc(-c3ccnc(N4CCOCC4)c3)cs2)c1 [Compound 197, N-(3-Methylphenyl)-4-[2-(4-morpholinyl)-4-pyridinyl]-1,3-thiazol-2-amine] | – | – | – | –
– | CN(C)CCOc1ccc(Nc2nc(-c3ccncc3)cs2)cc1 [Compound 29, N-{4-[2-(Dimethylamino)ethoxy]phenyl}-4-(4-pyridinyl)-1,3-thiazol-2-amine] | 60 | 1.3 | – | –
– | Cc1cccc(Nc2nc(-c3ccncc3CCCO)cs2)c1 [Compound 187, 3-(4-{2-[(3-Methylphenyl)amino]-1,3-thiazol-4-yl}-3-pyridinyl)-1-propanol] | – | – | >5.9 | 6.8
– | O=P(O)(O)Oc1ccc(Nc2nc(-c3ccncc3)cs2)cc1 [Compound 41, 4-{[4-(4-Pyridinyl)-1,3-thiazol-2-yl]amino}phenyl Dihydrogen Phosphate] | 3 | 6.3 | – | –
– | Clc1ccc(Nc2nc(-c3ccncc3)cs2)cc1Cl [Compound 61, N-(3,4-Dichlorophenyl)-4-(4-pyridinyl)-1,3-thiazol-2-amine] | 13.5 | >3 | – | –
– | Fc1ccc(Nc2nc(-c3ccncc3)cs2)cc1 [Compound 33, N-(4-Fluorophenyl)-4-(4-pyridinyl)-1,3-thiazol-2-amine] | 6 | >7 | – | –
– | Cc1cccc(Nc2nc(-c3ccncc3)c(CN(C)C)s2)c1 [Compound 83, 5-[(Dimethylamino)methyl]-N-(3-methylphenyl)-4-(4-pyridinyl)-1,3-thiazol-2-amine] | 16 | 2.3 | – | –
– | Cc1cccc(Nc2nc(-c3ccnc(Br)c3)cs2)c1 [Compound 154, 4-(2-Bromo-4-pyridinyl)-N-(3-methylphenyl)-1,3-thiazol-2-amine] | – | – | >10 | 3.9
– | Cc1ccc(Nc2nc(-c3ccncc3)cs2)cc1O [Compound 49, 2-Methyl-5-{[4-(4-pyridinyl)-1,3-thiazol-2-yl]amino}phenol] | 12 | 4.6 | – | –
– | c1ccc(Nc2nc(-c3ccncc3)cs2)cc1 [Compound 3, N-Phenyl-4-(4-pyridinyl)-1,3-thiazol-2-amine] | 7 | >10 | – | –
– | Cc1cccc(Nc2nc(-c3ccncc3)c(C)s2)c1 [Compound 71, 5-Methyl-N-(3-methylphenyl)-4-(4-pyridinyl)-1,3-thiazol-2-amine] | 10 | >4 | – | –

melting point [°C] | SMILES | IC50 (RCC4 cells; Table 1) [µM] | Ratio (RCC4/VHL cells; Table 1) | Ratio (RCC4/VHL cells; Table 2) | IC50 (RCC4 cells; Table 2) [µM]
– | Cc1cccc(Nc2nc(-c3ccnc4ccccc34)cs2)c1 [Compound 192, N-(3-Methylphenyl)-4-(4-quinolinyl)-1,3-thiazol-2-amine] | – | – | 1.6 | 12.3
– | Oc1ccc(Nc2nc(-c3ccccn3)cs2)cc1 [Compound 69, 4-{[4-(2-Pyridinyl)-1,3-thiazol-2-yl]amino}phenol] | 36 | 0.7 | – | –
– | Cc1cccc(Nc2nc(-c3ccncc3)c(CCCN3CCOCC3)s2)c1 [Compound 82, N-(3-Methylphenyl)-5-[3-(4-morpholinyl)propyl]-4-(4-pyridinyl)-1,3-thiazol-2-amine] | 5.8 | 1.6 | – | –
– | Cc1cccc(Nc2nc(-c3ccnc(Cl)c3)cs2)c1 [Compound 150, 4-(2-Chloro-4-pyridinyl)-N-(3-methylphenyl)-1,3-thiazol-2-amine] | – | – | 3.8 | 2.2
– | Cc1cccc(Nc2nc(-c3ccccn3)cs2)c1 [Compound 68, N-(3-Methylphenyl)-4-(2-pyridinyl)-1,3-thiazol-2-amine] | 37 | 0.9 | – | –
– | Cc1cccc(Nc2nc(-c3ccncc3)c(CN3CCOCC3)s2)c1 [Compound 86, N-(3-Methylphenyl)-5-(4-morpholinylmethyl)-4-(4-pyridinyl)-1,3-thiazol-2-amine] | 2.5 | 4.8 | – | –
– | CC(=O)Nc1cnccc1-c1csc(Nc2cccc(C)c2)n1 [Compound 183] | – | – | 1.0 | 33.3
170 to 171 | Cc1cccc(Nc2nc(-c3ccncc3)c[nH]2)c1 [Compound 196, N-(3-Methylphenyl)-4-(4-pyridinyl)-1H-imidazol-2-amine] | – | – | – | –
– | C#Cc1cnccc1-c1csc(Nc2cccc(C)c2)n1 [Compound 184, 4-(3-Ethynyl-4-pyridinyl)-N-(3-methylphenyl)-1,3-thiazol-2-amine] | – | – | 4.4 | 1.35
148 to 150 | Cc1cccc(Nc2nc(-c3ccnc(N(C)C)c3)cs2)c1 [Compound 199, N,N-Dimethyl-4-{2-[(3-methylphenyl)amino]-1,3-thiazol-4-yl}-2-pyridinamine] | – | – | – | –
– | CC(=O)c1cccc(Nc2nc(-c3ccncc3)cs2)c1 [Compound 125, 1-(3-{[4-(4-Pyridinyl)-1,3-thiazol-2-yl]amino}phenyl)ethanone] | 13 | >3.1 | – | –
– | O=P(O)(O)Oc1cccc(Nc2nc(-c3ccncc3)cs2)c1 [Compound 39, 3-{[4-(4-Pyridinyl)-1,3-thiazol-2-yl]amino}phenyl Dihydrogen Phosphate] | 29 | 1.1 | – | –
– | Cc1cccc(Nc2nc(-c3cc(-c4ccccc4)nc4ccccc34)cs2)c1 [Compound 194, N-(3-Methylphenyl)-4-(2-phenyl-4-quinolinyl)-1,3-thiazol-2-amine] | – | – | >1.6 | 25.4
– | Cc1cccc(Nc2nc(-c3ccncc3C)cs2)c1 [Compound 166, N-(3-Methylphenyl)-4-(3-methyl-4-pyridinyl)-1,3-thiazol-2-amine] | – | – | >7.7 | 5.2
– | Oc1ccccc1Nc1nc(-c2ccncc2)cs1 [Compound 107, 2-{[4-(4-Pyridinyl)-1,3-thiazol-2-yl]amino}phenol] | 12.8 | >3.1 | – | –
– | CCN(c1cccc(C)c1)c1nc(-c2ccncc2)cs1 [Compound 96, N-Ethyl-N-(3-methylphenyl)-4-(4-pyridinyl)-1,3-thiazol-2-amine] | 40 | 0.6 | – | –
– | Brc1cccc(Nc2nc(-c3ccncc3)cs2)c1 [Compound 123, N-(3-Bromophenyl)-4-(4-pyridinyl)-1,3-thiazol-2-amine] | 12.4 | >3.2 | – | –
– | COc1ccc(Nc2nc(-c3ccncc3)cs2)cc1 [Compound 27, N-(4-Methoxyphenyl)-4-(4-pyridinyl)-1,3-thiazol-2-amine] | 14 | 3.6 | – | –
– | CC(=O)c1ccc(Nc2nc(-c3ccncc3)cs2)cc1 [Compound 131, 1-(4-{[4-(4-Pyridinyl)-1,3-thiazol-2-yl]amino}phenyl)ethanone] | 3.8 | 3.1 | – | –
– | OCc1sc(Nc2ccc3c(c2)CCC3)nc1-c1ccncc1 [Compound 76, [2-(2,3-Dihydro-1H-inden-5-ylamino)-4-(4-pyridinyl)-1,3-thiazol-5-yl]methanol] | 6.8 | 1.4 | – | –

Reference: patent US20110105436A1, “HETEROARYL COMPOUNDS, COMPOSITIONS, AND METHODS OF USE IN CANCER TREATMENT” (AUCKLAND UNISERVICES LIMITED, priority 2008, published 2011)
